From patent US12502369B2, “Methods of cancer treatment” (K-GEN, INC., priority 2015, dated 2025)

Legend:
[1] = tested on: Cancer cell lines (161 different lines); assay: Proliferation assay, 161 cancer cell lines, 72 hours; assay type: cell-based
Protocol: Cells were treated for 72 hours instead of 96 hours. Thus, cell numbers from individual cell line were optimized so that cells were ˜70-80% confluent in 72 hours when treated with vehicle only. […] A number of other cancer cell lines from bladder, ovarian, myeloma, prostrate, and renal cancers are also sensitive to K-101A. Most cell lines from liver and lung (SCLC) are resistant to K101A.

[2] = literature reports; cited from earlier work
phospho-PKC (pan) = assay: Western blot of phospho-PKC (pan) in A549 cells; assay type: cell-based
Protocol: Cancer cells (2-8 million cells) were seeded in 10 cm dishes and grown overnight. For A549 lung cancer cell line, about 3 million cells were seeded. Cells were then treated with different drugs at indicated concentrations (see Table 8) for a period of time up to 48 hours. Cells were lysed in 0.3-0.5 mL of RIPA buffer (Sigma) supplemented with protease inhibitors (Roche) and phosphatase inhibitors (Sigma). Lysates were assayed for protein concentration using BCA kit (Pierce). Normalized amount of lysates (20-30 μg protein/lane) were run on 4-12% NuPage gel (Life Technologies) and the proteins were transferred to the PVDF or nitrocellulose membrane using iBlot® Transfer Stack (Life Technologies). The membranes were probed with primary antibodies shown in Table 8 at 4° C. overnight after blocking with 1×TBST containing 5% non-fat milk. Antibodies from other vendors could also be used in Western blot analysis. After washing 5 times with 1×TBS containing 0.1% Tween20, the membranes were probed with 2nd antibodies Anti-mouse IgG Dylight 800 conjugate or Anti-rabbit IgG DyLight 680 conjugate (1:10000; Cell signaling or similar IR 2nd antibodies from different vendors) at room temperature for one hour. After washing 5 times, the membranes were scanned using Odyssey® Imaging System (Licor Biosciences).

[3] = tested on: PKCμ and PKCδ in Namalwa, Mino, Raji, Daudi; assay: Activation of PKC isoforms in four lymphoma cell lines, Western blot; assay type: cell-based
Protocol: Western blot analysis was performed as described in Example 2 and 4.

Wnt signaling pathway = assay: TOPFlash / TK-RL Dual Luciferase assay (Wnt signaling), A549; assay type: cell-based; conditions: 24 hours, K101A 1, 3, 10 μM, K102 0.03, 0.1, 0.3 μM
Protocol: A549 cells (20K cells/well) were seeded in 96-well plates on Day 1. Cells were transfected with a mixture of TOPFlash firefly luciferase reporter plasmid M50 (300 ng/well) (Adagene) and an internal control plasmid pRL-TK-Renilla luciferase (20 ng/well) (Promega) using FuGene transfection reagent (plasmid:FuGene=1:4) (Promega) on Day 2. […] Luciferase activities in treated cells were measured using Dual-Glo Luciferase Kit according to manufacturer's instructions (Promega) on Envision (Perkin Elmer). TOPFlash has been used as a reporter for activation of Wnt signaling pathway. […] It has been reported that PKC activators, via suppression of K-Ras stemness pathway, can block canonical Wnt signaling in pancreatic cancer cells. The data here indicate that PKC activator can also block canonical Wnt signaling in lung cancer cells.

## CC(=O)O[C@@]12C[C@@H](C)[C@]3(O)C4C=C(C)C(=O)[C@@]4(O)CC(CO)=C[C@H]3[C@@H]1C2(C)C (some centres unmarked) [Compound K-101A, Prostratin]
[1]
  sensitivity of most cell lines from liver and lung (SCLC): resistant
[1]; 161 cell lines
  cell lines showing top inhibition above 30%: Roughly 50 % of the cell lines
  cell lines showing top inhibition above 50%: ~25 % of the cell lines
[1]; breast cancer cell lines
  lines having a top inhibition above 30%: 9 out of 18
[1]; leukemia cell lines
  lines having a top inhibition above 30%: 10 out of 11
[2]
  tumor promotion: non-tumor-promoting
phospho-PKC (pan); 0.5 uM of K-101A
  phospho-PKC (pan) level: without affecting
phospho-PKC (pan); 48 hours, K-103, K-102 at 0.5 μM, K-101A at 2.5 μM
  phospho-PKC (pan) levels: reduction
[3]
  phosphorylation of PKCμ at Ser744/748 and Ser916 and PKCδ at Thr505: induced in all cell lines
  proportion of phosphorylated PKCμ at Ser916/total PKCμ: much greater in two sensitive cell lines
Wnt signaling pathway
  maximal inhibition of TOPFlash activity: about 60%
